Experimental data published in paper PMC5440690, “Sirt1 carboxyl-domain is an ATP-repressible domain that is transferrable to other proteins” (Nature Communications, 2017).

Key:
[1] = target: T1, Sirt1 (Mus musculus, UniProt Q923E4); experiment: gel-filtration (spin column) binding with [γ-32P]ATP; also ATP-agarose pull-down with free ATP competition, and enzyme inhibition
T1 construct: full-length recombinant Sirt1
T1 sequence (Q923E4 2-737): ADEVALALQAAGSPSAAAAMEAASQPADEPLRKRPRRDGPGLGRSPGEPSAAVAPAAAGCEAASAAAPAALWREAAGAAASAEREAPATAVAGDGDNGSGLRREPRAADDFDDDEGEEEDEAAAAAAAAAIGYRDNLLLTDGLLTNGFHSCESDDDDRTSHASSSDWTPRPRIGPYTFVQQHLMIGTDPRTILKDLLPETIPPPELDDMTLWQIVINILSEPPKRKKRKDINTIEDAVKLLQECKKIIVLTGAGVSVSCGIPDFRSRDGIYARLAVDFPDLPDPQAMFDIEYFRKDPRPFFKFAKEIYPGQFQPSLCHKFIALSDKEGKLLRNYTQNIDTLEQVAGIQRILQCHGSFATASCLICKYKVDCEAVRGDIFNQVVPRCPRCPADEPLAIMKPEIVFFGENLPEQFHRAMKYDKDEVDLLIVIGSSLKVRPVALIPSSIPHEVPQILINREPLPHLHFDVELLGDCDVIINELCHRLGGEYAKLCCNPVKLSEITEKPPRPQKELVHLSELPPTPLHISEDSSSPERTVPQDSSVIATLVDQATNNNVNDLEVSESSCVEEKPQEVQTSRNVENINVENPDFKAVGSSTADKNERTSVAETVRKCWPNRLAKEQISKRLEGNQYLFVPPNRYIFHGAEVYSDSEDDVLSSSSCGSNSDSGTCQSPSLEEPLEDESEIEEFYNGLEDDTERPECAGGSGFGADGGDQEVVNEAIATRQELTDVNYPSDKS

[2] = target: T2, 2A Sirt1 (Mus musculus, UniProt Q923E4, S649A/S651A); experiment: deacetylation of [3H]Ac-H4, inhibition kinetics (Kii); weakened ATP-agarose binding; format: biochemical
T2 construct: full-length recombinant 2A Sirt1
T2 sequence (Q923E4 1-737 S649A/S651A): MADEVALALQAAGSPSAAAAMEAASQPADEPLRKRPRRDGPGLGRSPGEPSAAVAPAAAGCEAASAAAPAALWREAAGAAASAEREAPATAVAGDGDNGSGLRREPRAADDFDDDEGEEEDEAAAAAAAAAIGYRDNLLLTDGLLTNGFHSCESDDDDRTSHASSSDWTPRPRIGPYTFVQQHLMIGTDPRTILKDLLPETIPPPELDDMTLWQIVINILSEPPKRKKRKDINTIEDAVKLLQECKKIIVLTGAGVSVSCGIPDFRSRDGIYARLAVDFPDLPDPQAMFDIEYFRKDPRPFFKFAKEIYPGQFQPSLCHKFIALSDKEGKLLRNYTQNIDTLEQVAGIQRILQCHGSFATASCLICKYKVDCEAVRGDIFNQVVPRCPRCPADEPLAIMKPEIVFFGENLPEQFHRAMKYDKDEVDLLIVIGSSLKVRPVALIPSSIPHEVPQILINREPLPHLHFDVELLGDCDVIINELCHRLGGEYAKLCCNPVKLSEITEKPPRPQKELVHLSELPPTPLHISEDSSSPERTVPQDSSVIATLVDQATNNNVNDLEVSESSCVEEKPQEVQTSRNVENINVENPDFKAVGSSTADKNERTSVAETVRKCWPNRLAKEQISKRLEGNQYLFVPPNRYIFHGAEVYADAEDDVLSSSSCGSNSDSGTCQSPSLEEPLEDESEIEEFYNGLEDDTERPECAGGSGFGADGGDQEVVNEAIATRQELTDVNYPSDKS

Work on `Nc1ncnc2c1ncn2[C@@H]1O[C@H](COP(=O)(O)OP(=O)(O)OP(=O)(O)O)[C@@H](O)[C@H]1O` [ATP] yielded a Kd [1] of roughly 4.6 mM and a Ki [2] of 6.45 ± 0.51 mM.
